The conditions of data set [1]: human gut metagenome, 24 h, 2 µM.
For data set [2] the following is noted: human gut metagenome, 24 h, 2 µM. This is another data set of the same source.
The conditions of data set [3]: human gut metagenome, 24 h, 2 µM. The source holds these as a separate data set.
Data set [4] is described as follows: The drug is tested on WLS-038 corresponding to human gut metagenome with ENA study accession number: PRJEB37062 and ENA sample accession number: ERS12561745 for biotransformation under anaerobic condition. The drug concentrations were measured over 9 timepoints collected between 0 and 24 hours of incubation by liquid-chromatography-coupled mass spectrometry (LC–MS). Particulars: 2 µM.

A short description of data set [5]: The drug is tested on WLS-370 corresponding to human gut metagenome with ENA study accession number: PRJEB37062 and ENA sample accession number: ERS12561793 for biotransformation under anaerobic condition. The drug concentrations were measured over 9 timepoints collected between 0 and 24 hours of incubation by liquid-chromatography-coupled mass spectrometry (LC–MS). Particulars: 2 µM.

Data set [6] can be described thus: The drug is tested on Z-005 corresponding to metagenome with ENA study accession number: PRJEB37062 and ENA sample accession number: ERS12561805 for biotransformation under anaerobic condition. The drug concentrations were measured over 9 timepoints collected between 0 and 24 hours of incubation by liquid-chromatography-coupled mass spectrometry (LC–MS). Particulars: 2 µM.

Data set [7] in a line: The drug is tested on WLS-010 corresponding to human gut metagenome with ENA study accession number: PRJEB37062 and ENA sample accession number: ERS12561743 for biotransformation under anaerobic condition. The drug concentrations were measured over 9 timepoints collected between 0 and 24 hours of incubation by liquid-chromatography-coupled mass spectrometry (LC–MS). As to conditions: 2 µM.

Data set [8] is described as follows: The drug is tested on WLS-310 corresponding to human gut metagenome with ENA study accession number: PRJEB37062 and ENA sample accession number: ERS12561785 for biotransformation under anaerobic condition. The drug concentrations were measured over 9 timepoints collected between 0 and 24 hours of incubation by liquid-chromatography-coupled mass spectrometry (LC–MS). As to conditions: 2 µM.

For data set [9] the following is noted: human gut metagenome, 24 h, 2 µM. This is another data set of the same source.
Data set [10] can be described thus: The drug is tested on WLS-350 corresponding to human gut metagenome with ENA study accession number: PRJEB37062 and ENA sample accession number: ERS12561789 for biotransformation under anaerobic condition. The drug concentrations were measured over 9 timepoints collected between 0 and 24 hours of incubation by liquid-chromatography-coupled mass spectrometry (LC–MS). As to conditions: 2 µM.

Data set [11] in a line: The drug is tested on WLS-039 corresponding to human gut metagenome with ENA study accession number: PRJEB37062 and ENA sample accession number: ERS12561746 for biotransformation under anaerobic condition. The drug concentrations were measured over 9 timepoints collected between 0 and 24 hours of incubation by liquid-chromatography-coupled mass spectrometry (LC–MS). Particulars: 2 µM.

The conditions of data set [12]: human gut metagenome, 24 h, 2 µM. The source holds these as a separate data set.
For data set [13] the following is noted: human gut metagenome, 24 h, 2 µM. This is another data set of the same source.
The conditions of data set [14]: human gut metagenome, 24 h, 2 µM. The source holds these as a separate data set.
The conditions of data set [15]: human gut metagenome, 24 h, 2 µM. This is another data set of the same source.
The conditions of data set [16]: human gut metagenome, 24 h, 2 µM. The source holds these as a separate data set.
The conditions of data set [17]: human gut metagenome, 24 h, 2 µM. This is another data set of the same source.
Data set [18] is described as follows: The drug is tested on WLS-069 corresponding to human gut metagenome with ENA study accession number: PRJEB37062 and ENA sample accession number: ERS12561748 for biotransformation under anaerobic condition. The drug concentrations were measured over 9 timepoints collected between 0 and 24 hours of incubation by liquid-chromatography-coupled mass spectrometry (LC–MS). As to conditions: 2 µM.

For data set [19] the following is noted: human gut metagenome, 24 h, 2 µM. The source holds these as a separate data set.
A short description of data set [20]: The drug is tested on Z-022 corresponding to mouse gut metagenome with ENA study accession number: PRJEB37062 and ENA sample accession number: ERS12561821 for biotransformation under anaerobic condition. The drug concentrations were measured over 9 timepoints collected between 0 and 24 hours of incubation by liquid-chromatography-coupled mass spectrometry (LC–MS). As to conditions: 2 µM.
Further: call rule not given here.

Regarding `CCCC(=O)Nc1ccc(OCC(O)CNC(C)C)c(C(C)=O)c1` (stereo not given) [ACEBUTOLOL], the “Bacterial Biotransformation” value in data set [1] is reported as “Compound metabolized”; in [2], “Compound NOT metabolized”; in data set [3], “Compound metabolized”; in data set [4] it was “Compound NOT metabolized”; in [5], “Compound NOT metabolized”; in [6], “Compound NOT metabolized”. The “Bacterial Biotransformation” value in [7] is “Compound NOT metabolized”; in data set [8], “Compound metabolized”; in data set [9], “Compound NOT metabolized”; in data set [10], “Compound metabolized”; in [11], “Compound NOT metabolized”; in data set [12], “Compound metabolized”. For the same compound, the “Bacterial Biotransformation” value in data set [13] was “Compound metabolized”; in [14], “Compound metabolized”; in data set [15] it was “Compound metabolized”; in data set [16] it was “Compound NOT metabolized”; in data set [17], “Compound metabolized”; in [18] it was “Compound metabolized”. In addition, the “Bacterial Biotransformation” value in data set [19] and in data set [20] was “Compound metabolized” each time.

As for `C=CCc1ccccc1OCC(O)CNC(C)C` (stereo not given) [ALPRENOLOL], the “Bacterial Biotransformation” value in data set [1] was “Compound metabolized”; in data set [2], “Compound NOT metabolized”; in data set [3], “Compound metabolized”; in data set [4] it was “Compound NOT metabolized”; in data set [5], “Compound NOT metabolized”; in [6], “Compound NOT metabolized”. For the same compound, the “Bacterial Biotransformation” value in data set [7], in data set [8], in data set [9], in data set [10], in data set [11] and in data set [12] was “Compound NOT metabolized” each time. For the same compound, the “Bacterial Biotransformation” value is reported as “Compound metabolized” in data set [13]; “Compound NOT metabolized” in [14]; “Compound NOT metabolized” in data set [15]; “Compound NOT metabolized” in data set [16]; “Compound metabolized” in data set [17]; “Compound NOT metabolized” in [18]. Also, the “Bacterial Biotransformation” value in data set [19] and in data set [20] was “Compound metabolized” each time.

Regarding `CCOC(=O)[C@H](CCc1ccccc1)N[C@H]1CCc2ccccc2N(CC(=O)O)C1=O` [BENAZEPRIL], the “Bacterial Biotransformation” value in data set [1], in data set [2], in data set [3], in [4], in [5] and in data set [6] was “Compound metabolized” each time. Further, the “Bacterial Biotransformation” value in [7], in [8], in data set [9], in data set [10], in [11] and in data set [12] was “Compound metabolized” in each case. The “Bacterial Biotransformation” value in [13] is “Compound metabolized”; in data set [14], “Compound NOT metabolized”; in [15] it was “Compound metabolized”; in data set [16] it was “Compound metabolized”; in [17], “Compound metabolized”; in data set [18] it was “Compound metabolized”. In addition, the “Bacterial Biotransformation” value in data set [19] and in [20] was “Compound metabolized” each time.

Regarding `NS(=O)(=O)c1cc2c(cc1Cl)N=C(CSCc1ccccc1)NS2(=O)=O` [BENZTHIAZIDE], the “Bacterial Biotransformation” value in [1], in data set [2], in [3], in data set [4], in data set [5] and in data set [6] was “Compound NOT metabolized” each time. Further, the “Bacterial Biotransformation” value in data set [7], in data set [8], in data set [9], in data set [10], in data set [11] and in data set [12] was “Compound NOT metabolized” each time. Also, the “Bacterial Biotransformation” value is recorded as “Compound NOT metabolized” in [13]; “Compound NOT metabolized” in data set [14]; “Compound NOT metabolized” in data set [15]; “Compound NOT metabolized” in data set [16]; “Compound metabolized” in data set [17]; “Compound NOT metabolized” in data set [18]. The “Bacterial Biotransformation” value in data set [19] and in data set [20] was “Compound NOT metabolized” in each case.

Turning to `CC(C)NCC(O)COc1ccc(COCCOC(C)C)cc1.CC(C)NCC(O)COc1ccc(COCCOC(C)C)cc1.O=C(O)/C=C/C(=O)O` (stereo not given) [BISOPROLOL FUMARATE], the “Bacterial Biotransformation” value was “Compound NOT metabolized” in [1]; “Compound NOT metabolized” in data set [2]; “Compound metabolized” in [3]; “Compound NOT metabolized” in data set [4]; “Compound NOT metabolized” in data set [5]; “Compound NOT metabolized” in [6]. Further, the “Bacterial Biotransformation” value was “Compound NOT metabolized” in data set [7]; “Compound NOT metabolized” in data set [8]; “Compound metabolized” in data set [9]; “Compound NOT metabolized” in data set [10]; “Compound NOT metabolized” in [11]; “Compound metabolized” in [12]. The “Bacterial Biotransformation” value in data set [13] is given as “Compound NOT metabolized”; in data set [14], “Compound NOT metabolized”; in data set [15] it was “Compound NOT metabolized”; in data set [16], “Compound metabolized”; in data set [17], “Compound metabolized”; in data set [18], “Compound NOT metabolized”. The figures for the “Bacterial Biotransformation” value in data set [19] and in data set [20] were “Compound NOT metabolized” and “Compound metabolized”, respectively.

On to `CCCCCOC(=O)Nc1nc(=O)n([C@@H]2O[C@H](C)[C@@H](O)[C@H]2O)cc1F` [CAPECITABINE], for which the “Bacterial Biotransformation” value in data set [1], in data set [2], in data set [3], in data set [4], in data set [5] and in data set [6] was “Compound metabolized” each time. In addition, the “Bacterial Biotransformation” value in data set [7], in [8], in [9], in data set [10], in data set [11] and in data set [12] was “Compound metabolized” each time. For the same compound, the “Bacterial Biotransformation” value in [13], in data set [14], in data set [15], in data set [16], in data set [17] and in data set [18] was “Compound metabolized” each time. Further, the “Bacterial Biotransformation” value is “Compound metabolized” in [19] and “Compound NOT metabolized” in [20].

Values taken from ChEMBL document CHEMBL5724914, “Linking interpersonal differences in gut microbiota composition and drug biotransformation activity” (2024).
